Measured values from patent US20040220085A1, “Compositions for nucleic acid delivery” (priority 2003, published 2004).

Legend:
Format in all cases: cell-based, human
JJ5 breast cancer cells [1] = assay: Growth inhibition assay against JJ5 breast cancer cells; settings: 4 days culture
Protocol: JJ5 breast cancer cells (prepared from BCBM JJ5) expressing approximately 10^6 epidermal growth factor receptors/cell were incubated with EGF-^111In-labeled transferrin composition, unlabeled hEGF or ^111In-oxine, centrifuged to remove free ligand, then assayed and seeded (10^6 cells/dish) into 35 mm culture dishes. Growth medium was added and the cells were cultured at 37° C./5% CO^2 for 4 days. The cells were then recovered by trypsinization and counted in a hemocytometer. Control dishes contained cells cultured in growth medium containing ^111In-DTPA or growth medium alone.

JJ5 breast cancer cells [2] = assay: Cytotoxicity (colony-forming) assay against JJ5 breast cancer cells; settings: 14 days
Protocol: JJ5 breast cancer cells were incubated with increasing amounts EGF-^111In-labeled transferrin composition or ^111In-oxine, centrifuged to remove free ligand, assayed and then seeded into 50 mm culture dishes. The number of cells seeded was varied from 3×10^4 to 3×10^6cells to obtain approximately 400 viable colonies/dish taking into account the plating efficiency and the expected level of cytotoxicity. Control dishes contained JJ5 breast cancer cells which were incubated with normal saline. Growth medium was added and the cells were cultured at 37° C./5% CO^2 for 14 days. The growth medium was removed and the colonies were stained with methylene blue (1% in a 1:1 mixture of ethanol and water) then washed twice. The number of colonies per dish was counted using a manual colony counter (Manostat Corp). The plating efficiency was calculated by dividing the number of colonies observed by the number of cells seeded in each dish. The surviving fraction at increasing amounts of EGF-^111In-labeled transferrin composition or ^111In-oxine was calculated by dividing the plating efficiency for dishes containing treated cells with that observed for control dishes with normal saline.

[3] = system: JJ5 Breast Cancer cells (EGFR); assay: Binding of EGF-111In-labeled transferrin composition to JJ5 breast cancer cells
Protocol: For the normal breast cell line HBL-100, 8000 EGFR/cell has been reported. The expression of EGFR in breast cancer cell lines has a reported range of 800 EGFR/cell for MCF-7 cells to 10^6 EGFR/cell for MDA-MB-468 cells. […] Utilizing the Auger electron emitter ^111In was used in the initial experiments to illustrate the utility of the invention using EGF-^111In-labeled transferrin compositions. The EGF-^111In-labeled transferrin (0.25-80 ng) was incubated with 1.5×10^6 cells/dish JJ5 Breast Cancer (prepared from BCBM JJ5) cells in 1 mL of 0.1% human serum albumin in 35 mm multiwell culture dishes at 37° C. for 30 minutes. The cells were transferred to a centrifuge tube and centrifuged. The cell pellet was separated from the supernatant and counted in a g-scintillation counter to determine bound (B) and free (F) radioactivity. Non-specific binding was determined by conducting the assay in 100 nM hEGF. The kinetics of binding was determined by incubating 1 ng of EGF-^111In-labeled transferrin composition with 3×10^6 JJ5 Breast Cancer cells at 37° C. and determining the proportion of radioactivity bound to the cells at various times up to 24 hours. Internalized fraction was measured by determining the proportion of radioactivity which could not be displaced from the cell surface by 100 nM hEGF. Cell-associated binding (surface-binding and intracellular accumulation) was expressed as a percentage of medium radioactivity bound per mg of cell study protein.

| Compound | growth inhibition of the JJ5 cells (JJ5 breast cancer cells [1]; 3.5 pCi/cell) [%] | cell killing (JJ5 breast cancer cells [2]; <6 pCi/cell) | internalization by cancer cells ([3]; JJ5 cells) | number of binding sites ([3]; JJ5 cells) | kinetics of binding to the breast cancer cells ([3]; JJ5 cells, 37° C.) | time retained by the breast cancer cells ([3]; JJ5 cells, 37° C.) | affinity constant for binding to JJ5 cells ([3]; JJ5 cells, 37° C., 30 minutes) [L/mol] | 111In radioactivity lost from the cells in vitro ([3]; over a 24 hour period at 37° C.) [%] | growth inhibition of the JJ5 cells compared to the medium control (JJ5 breast cancer cells [1]; 3.4 pCi/cell) [%] | reduction in cell survival for JJ5 cells (JJ5 breast cancer cells [2]; 8 pCi/cell) [%] |
| --- | --- | --- | --- | --- | --- | --- | --- | --- | --- | --- |
| [In+3].[O-]c1cccc2cccnc12.[O-]c1cccc2cccnc12.[O-]c1cccc2cccnc12 [^111In-oxine, reference compound] | 91 | greater than 99% |  |  |  |  |  |  |  |  |
| EGF-^111In-labeled transferrin composition: human EGF linked to transferrin radiolabeled with the Auger electron emitter 111In at the iron-binding sites |  |  | rapidly internalized | 2.7×10^6 | rapidly bound | at least 24 hours | 8e+08 | < 8 | 83 | 99 |
